# Test results: ChEMBL document CHEMBL1150445, “A new galactosyl transferase inhibitor” (Bioorg Med Chem Lett, 1993)
# Target: T1, Beta-1,4-galactosyltransferase 1 (Bos taurus, UniProt P08037)
# T1 sequence (P08037 whole entry): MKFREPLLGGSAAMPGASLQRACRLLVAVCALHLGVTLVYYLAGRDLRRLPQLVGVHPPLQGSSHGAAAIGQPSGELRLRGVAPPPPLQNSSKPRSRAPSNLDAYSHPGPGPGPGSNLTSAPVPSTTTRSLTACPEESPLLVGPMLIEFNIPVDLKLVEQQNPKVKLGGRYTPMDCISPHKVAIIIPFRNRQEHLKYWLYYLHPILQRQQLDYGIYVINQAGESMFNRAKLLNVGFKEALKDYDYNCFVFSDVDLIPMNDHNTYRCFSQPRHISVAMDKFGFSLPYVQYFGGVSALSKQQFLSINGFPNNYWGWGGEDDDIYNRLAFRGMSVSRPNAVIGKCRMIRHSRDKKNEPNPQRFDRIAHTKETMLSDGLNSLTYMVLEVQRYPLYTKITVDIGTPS
# Test: Inhibition constant of compound was tested against Beta-galactosyltransferase from bovine milk
row,Compound,Ki [µM]
1,O=P(O)(O)CC1=CC(O)C(O)C(CO)O1 (stereo not given),1430
2,O=c1ccn(C2O[C@H](COP(=O)(O)OP(=O)(O)C3OC(O)C(O)C(O)C3O)[C@@H](O)[C@H]2O)c(=O)[nH]1 (stereo not given in full),165
3,O=c1ccn(C2O[C@H](COP(=O)(O)CP(=O)(O)OC3OC(O)C(O)C(O)C3O)[C@@H](O)[C@H]2O)c(=O)[nH]1 (stereo not given in full),96.9
4,O=c1ccn(C2O[C@H](COP(=O)(O)OP(=O)(O)CC3=CC(O)C(O)C(CO)O3)[C@@H](O)[C@H]2O)c(=O)[nH]1 (stereo not given in full),62
5,O=c1ccn([C@@H]2O[C@H](COP(=O)(O)OP(=O)(O)OP(=O)(O)O)[C@@H](O)[C@H]2O)c(=O)[nH]1 [URIDINE TRIPHOSPHATE],128
